Source: PMC4444576, “Prospective performance evaluation of selected common virtual screening tools. Case study: Cyclooxygenase (COX) 1 and 2” (European Journal of Medicinal Chemistry, 2015)
Like-named read-outs stand apart in the source and are kept apart here.

Legend:
[1] = molecular target: T1, ram seminal vesicle COX-1 (Ovis aries, UniProt P05979); experiment: COX-1 inhibition assay (PGE2 EIA); type: biochemical; details: average of at least two independent experiments, triplicates; read-out: IC50 COX-1
T1 construct: ram seminal vesicle COX-1 (1 U) (Sigma–Aldrich); purchased Sigma–Aldrich; host or cells: ram seminal vesicle (tissue of origin)
T1 sequence (P05979 25-600): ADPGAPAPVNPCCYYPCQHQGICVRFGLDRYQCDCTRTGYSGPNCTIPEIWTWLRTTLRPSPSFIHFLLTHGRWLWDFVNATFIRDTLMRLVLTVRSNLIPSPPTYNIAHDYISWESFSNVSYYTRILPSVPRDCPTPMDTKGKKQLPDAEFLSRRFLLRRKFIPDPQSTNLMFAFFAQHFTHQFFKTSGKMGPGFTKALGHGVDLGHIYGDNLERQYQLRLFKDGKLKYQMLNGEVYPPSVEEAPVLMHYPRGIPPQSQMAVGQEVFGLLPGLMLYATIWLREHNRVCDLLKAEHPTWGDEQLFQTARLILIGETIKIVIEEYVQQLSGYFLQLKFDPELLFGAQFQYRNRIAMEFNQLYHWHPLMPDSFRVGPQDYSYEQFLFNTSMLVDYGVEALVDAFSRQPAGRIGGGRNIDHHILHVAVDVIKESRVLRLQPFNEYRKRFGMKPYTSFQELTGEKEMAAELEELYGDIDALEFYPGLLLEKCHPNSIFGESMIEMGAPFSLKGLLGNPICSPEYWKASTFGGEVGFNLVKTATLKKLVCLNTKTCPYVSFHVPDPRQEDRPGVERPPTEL

human recombinant COX-2 = molecular target: T2, human recombinant COX-2 (Homo sapiens, UniProt P35354); experiment: COX-2 inhibition assay (PGE2 EIA); type: biochemical; details: average of at least two independent experiments, triplicates; read-out: IC50 COX-2
T2 construct: purchased Sigma–Aldrich
T2 sequence (P35354 18-604): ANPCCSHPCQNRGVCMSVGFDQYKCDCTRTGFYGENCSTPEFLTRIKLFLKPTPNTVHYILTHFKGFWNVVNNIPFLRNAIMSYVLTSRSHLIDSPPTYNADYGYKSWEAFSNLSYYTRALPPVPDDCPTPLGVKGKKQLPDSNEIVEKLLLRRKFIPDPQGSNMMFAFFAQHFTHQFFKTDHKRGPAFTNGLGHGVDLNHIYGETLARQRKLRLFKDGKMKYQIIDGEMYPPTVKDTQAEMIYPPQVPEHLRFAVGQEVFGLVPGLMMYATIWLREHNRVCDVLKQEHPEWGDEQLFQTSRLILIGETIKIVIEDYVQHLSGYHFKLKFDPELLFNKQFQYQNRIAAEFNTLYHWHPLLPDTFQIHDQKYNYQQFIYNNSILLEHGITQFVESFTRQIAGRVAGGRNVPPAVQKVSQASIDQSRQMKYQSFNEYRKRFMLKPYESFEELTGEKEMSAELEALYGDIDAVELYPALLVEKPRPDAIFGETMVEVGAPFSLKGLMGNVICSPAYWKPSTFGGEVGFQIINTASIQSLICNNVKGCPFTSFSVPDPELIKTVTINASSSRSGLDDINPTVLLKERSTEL

COX [2] = experiment: Biological testing for COX-inhibiting activity, overall outcome on both isoforms; type: biochemical; details: for COX isoform selectivity: COX-1 versus COX-2; for Activity: biological testing of this study
U937 cells = system: U937 cells; set-up: method as in PMID 19958764; details: stimulated differentiated U937 cells; cited from earlier work
mice and rats = system: mice and rats; set-up: method as in earlier work; details: ref 1 (Supporting Information), cited from earlier work
COX [3] = details: cited from earlier work; for Activity: data from the literature
COX [4] = system: COX; set-up: method as in PMID 22053353; details: read-out: IC50, oxidation of endocannabinoids; cited from earlier work

IC50 [1] [µM]	IC50 (human recombinant COX-2) [µM]	Structure (SMILES)	COX isoform selectivity (COX [2])	Activity (COX [2])	PGE2-formation (U937 cells)	anti-prostatic effects (mice and rats; mice and rats, compared to DES)	estrogenicity, lower compared to DES (mice and rats)	spermatogenesis or fertility (mice and rats; unlike DES)	PGE2 formation from AA (COX [3])	Activity (COX [3])	IC50 (COX [4]) [µM]
1.5 ± 2.1	> 20	COc1cc(/C=C2\CCC/C(=C\c3ccc(O)c(OC)c3)C2=O)ccc1O [Cyqualon (3), Cyqualon]	COX-1 selective	Active	did not prevent PGE2-formation	–	–	–	–	–	–
33 ± 7.3	> 20	CCC(c1ccc(O)c(F)c1)C(C)c1ccc(O)c(F)c1 (stereo not shown) [Bifluranol (1), Bifluranol]	COX-1 selective	Active	–	comparable extent to diethylstilbestrol (DES)	approximately 8 fold	did not impair spermatogenesis or fertility	–	–	–
–	–	CC(C)Cc1ccc([C@@H](C)C(=O)O)cc1 [(R)-ibuprofen]	–	–	–	–	–	–	only inhibited at high concentrations	Active [60]	~10
–	–	CC(C(=O)O)c1ccc2c(c1)[nH]c1ccc(Cl)cc12 (stereo not shown) [Carprofen]	–	–	–	–	–	–	–	Active [51]	–
